The target of data set [1] is T1, respiratory chain complex II (Rattus norvegicus, UniProt P21913+Q641Z9+Q6PCT8+Q920L2).
T1 construct: from tissue; host or cells: rat liver mitochondria (male Wistar rats)
Kind of data set: Mitochondrial oxygen consumption with succinate as respiratory substrate. Format: biochemical. As for the experimental part: Figure 5 Effect of DS16570511 on oxygen consumption in the presence of succinate. (a) Mitochondria (Mt), 10 mM succinate, and 0.1 µM SF6847 were added to Pi medium containing the indicated concentrations of DS16570511 or antimycin at the time points marked by arrows. Changes in dissolved oxygen concentration in the reaction medium were measured, and representative traces are shown. “natomsO” denotes the nanomoles of oxygen atoms in the reaction medium. (b) The degree of inhibition was calculated from the rate of oxygen consumption over a 3 min period, measured 30 s after SF6847 addition. […] Data are presented as the mean ± standard deviation of independent experiments (n = 3).
(§1) Livers were harvested from 6- to 18-week-old male Wistar rats (Japan SLC, Shizuoka, Japan), and mitochondria were isolated as previously described. All animal experiments complied with the University of Tokushima Guidelines for the Care and Use of Laboratory Animals (approval number: T28-29). Mitochondrial protein concentrations were measured using the Biuret method with bovine serum albumin as the standard in the presence of 1% SDS.
When electrons were supplied via respiratory chain complex I, 5 mM glutamate and 5 mM malate were used as respiratory substrates. For electrons supplied via respiratory chain complex II, 0.68 µg/mL rotenone was added beforehand to inhibit electron transfer from endogenous respiratory chain complex I, and 10 mM succinate was used as the respiratory substrate.

Data set [2] relates to mitochondrial Ca2+ uptake in rat liver mitochondria. Put plainly: Mitochondrial Ca2+ uptake assay (succinate-energized, Fluo-5). The class given is biochemical. To be noted: 10 mM succinate, Ca2+ uptake rate during first 30 s after adding mitochondria, read-out: IC50 for inhibition of mitochondrial Ca2+ uptake. As for the experimental part:
Figure 2 Effect of DS16570511 on mitochondrial Ca^2+ uptake activity in rat liver mitochondria. (a) Mitochondrial Ca^2+ uptake activity was measured in isolated rat liver mitochondria. Mitochondria were added to Pi medium containing the indicated concentrations of DS16570511 or ruthenium 360, and changes in extramitochondrial Ca^2+ concentration over time were analyzed based on Fluo-5 fluorescence intensity. Representative traces are shown. (b) The degree of inhibition was calculated from the Ca^2+ uptake rate during the first 30 s after adding mitochondria. Data are expressed as 0% inhibition in the absence of DS16570511 (none) and 100% inhibition in the presence of ruthenium 360. […]
(§2) Livers were harvested from 6- to 18-week-old male Wistar rats (Japan SLC, Shizuoka, Japan), and mitochondria were isolated as previously described. […] Mitochondrial protein concentrations were measured using the Biuret method with bovine serum albumin as the standard in the presence of 1% SDS.
Fluo-5 (1 µM) was used as a Ca^2+-sensitive fluorescence indicator in 1 mL of Pi medium (250 mM sucrose, 10 mM Tris-MOPS, 10 µM EGTA-Tris, 0.5 mg/mL bovine serum albumin, and 10 mM KPi, pH 7.4). Fluorescence intensity was measured using an F-2700 spectrofluorometer (HITACHI, Tokyo, Japan) with excitation and emission wavelengths of 494 and 516, respectively. […]

Data set [3] relates to membrane potential in rat liver mitochondria. Put plainly: Measurement of mitochondrial membrane potential formation (DiSC3(5)). Format: biochemical. To be noted: 10 mM succinate, first 5 s after succinate addition, read-out: IC50 for inhibition of membrane potential formation. As to the method: Figure 3 Effect of DS16570511 on membrane potential in rat liver mitochondria. (a) Rat liver mitochondria were incubated in Pi medium containing the indicated concentrations of DS16570511 or antimycin. At the time points indicated by arrows, 10 mM succinate was added as a respiratory substrate, and membrane potential was measured using 3 µM DiSC3(5) as a probe. Representative traces are shown. (b) The degree of inhibition was calculated from the rate of membrane potential formation during the first 5 s after succinate addition, with 0% inhibition in the absence of DS16570511 (none) and 100% inhibition in the presence of SF6847. […]
as §2
DiSC3(5) (3 µM) was used as a fluorescent probe to measure mitochondrial membrane potential in 2.2 mL of Pi medium. Fluorescence intensity was measured using an F-2700 spectrofluorometer (HITACHI, Tokyo, Japan) with excitation and emission wavelengths of 643 and 666 nm, respectively. Fluorescence intensity was recorded after adding 10 mM succinate to Pi medium containing 2.5 µM CsA, 0.68 µg/mL rotenone, 0.42 mg protein/mL mitochondria, and DS16570511. […]

Data set [4] concerns respiratory chain complexes I–III–IV. Kind of data set: Mitochondrial oxygen consumption with glutamate and malate as respiratory substrates. The class given is biochemical. The note with it: rat liver mitochondria, 5 mM glutamate, 5 mM malate, 0.1 µM SF6847; read-out: IC50 for inhibition of oxygen consumption (glutamate and malate; respiratory chain complexes I–III–IV). As to the method: Figure 6 Effect of DS16570511 on oxygen consumption in the presence of glutamate and malate. (a) Mitochondria (Mt), 5 mM glutamate, 5 mM malate, and 0.1 µM SF6847 were added to Pi medium containing the indicated concentrations of DS16570511 or antimycin at the time points marked by arrows. Changes in dissolved oxygen concentration in the reaction medium were measured, and representative traces are shown. “natomsO” denotes the nanomoles of oxygen atoms in the reaction medium. (b) The degree of inhibition was calculated from the rate of oxygen consumption over a 3 min period, measured 30 s after SF6847 addition. Results are expressed as 0% inhibition in the absence of DS16570511 (none) and 100% inhibition with antimycin. Data are presented as the mean ± standard deviation of independent experiments (n = 3).
as §2
The rate of mitochondrial oxygen consumption was measured using a Clark-type oxygen electrode (YSI5331, Yellow Springs Instrument Co., Ltd., Yellow Springs, OH, USA) at 25 °C in 2.2 mL of Pi medium preincubated with 2.5 µM CsA. […]

The next data set has as its target FoF1-ATPase/ANT. Kind of data set: Mitochondrial FoF1-ATPase activity (pH electrode). Format: biochemical. To be noted: rat liver mitochondria, 1 mM ATP, antimycin, pH change over 3 min; read-out: IC50 for inhibition of FoF1-ATPase/ANT activity (pH decrease). As for the experimental part:
Figure 7 Effect of DS16570511 on mitochondrial FoF1-ATPase activity. (a) Schematic representation of mitochondrial FoF1-ATPase activity: ATP enters the matrix via ANT and is hydrolyzed to ADP by FoF1-ATPase, driving proton extrusion from the matrix and decreasing the reaction medium pH. […] (b) Mitochondria were added to the incubation medium containing the indicated concentrations of DS16570511 or oligomycin, and pH changes in the medium were measured using a pH electrode. Representative traces are shown. (c) Inhibition was calculated from the pH change over a 3 min period, starting 30 s after adding mitochondria. Results are expressed as 0% inhibition in the absence of DS16570511 and 100% inhibition with oligomycin. Data are presented as the mean ± standard deviation of independent experiments (n = 3).
as §1
Mitochondrial FoF1-ATPase activity was measured using a modified version of the classical pH electrode-based method. […]

The subject of another data set is rat liver mitochondria. Kind of data set: Comparison with uncouplers on mitochondrial oxygen consumption. To be noted: 10 mM succinate, DS16570511 50 or 200 µM. The class given is biochemical. As for the experimental part:
Figure 4 Comparison of the effects of DS16570511 and uncouplers on mitochondrial oxygen consumption. Mitochondria (Mt), 10 mM succinate (Succ), and each compound (50 or 200 µM DS16570511 [DS], SF6847 [SF], or alamethicin [Ala]) were added to Pi medium at the time points indicated by arrows. Changes in the concentration of dissolved oxygen in the reaction medium were measured using an oxygen electrode. Representative traces are shown. “natomsO” denotes the nanomoles of oxygen atoms in the reaction medium.
The rate of mitochondrial oxygen consumption was measured using a Clark-type oxygen electrode (YSI5331, Yellow Springs Instrument Co., Ltd., Yellow Springs, OH, USA) at 25 °C in 2.2 mL of Pi medium preincubated with 2.5 µM CsA. When electrons were supplied via respiratory chain complex I, 5 mM glutamate and 5 mM malate were used as respiratory substrates. For electrons supplied via respiratory chain complex II, 0.68 µg/mL rotenone was added beforehand to inhibit electron transfer from endogenous respiratory chain complex I, and 10 mM succinate was used as the respiratory substrate. The degree of inhibition and IC50 values of DS16570511 were calculated based on the oxygen consumption rate over a 3 min period, starting 30 s after the addition of SF6847.

The test system of another data set is Ca2+ uptake. The note with it: read-out: IC50 for inhibition of Ca2+ uptake; cited from earlier work.
A further data set deals with mice. Details: method as in PMID 32126877, PMID 38779706. To be noted: cited from earlier work.
Where [5] appears, read: rat liver mitochondria, succinate.

pIC50: −log10 of the molar value.

T1 sequence (Q920L2 35-656): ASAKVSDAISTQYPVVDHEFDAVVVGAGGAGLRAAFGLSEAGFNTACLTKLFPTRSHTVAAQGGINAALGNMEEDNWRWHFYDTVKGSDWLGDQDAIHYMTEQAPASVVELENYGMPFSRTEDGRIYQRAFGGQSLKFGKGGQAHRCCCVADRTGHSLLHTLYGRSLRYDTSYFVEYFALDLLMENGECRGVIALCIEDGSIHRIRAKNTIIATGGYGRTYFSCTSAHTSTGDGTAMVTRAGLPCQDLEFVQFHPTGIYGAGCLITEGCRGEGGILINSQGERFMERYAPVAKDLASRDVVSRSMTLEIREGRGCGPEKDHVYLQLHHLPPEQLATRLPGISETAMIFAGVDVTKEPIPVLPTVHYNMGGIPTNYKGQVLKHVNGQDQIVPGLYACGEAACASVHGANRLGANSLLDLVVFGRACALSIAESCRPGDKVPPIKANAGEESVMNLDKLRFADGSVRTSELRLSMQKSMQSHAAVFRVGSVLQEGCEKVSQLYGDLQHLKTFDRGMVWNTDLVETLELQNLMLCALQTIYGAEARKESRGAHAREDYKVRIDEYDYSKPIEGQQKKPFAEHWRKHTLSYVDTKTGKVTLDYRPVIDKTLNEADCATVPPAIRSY
T1 sequence (P21913 31-282): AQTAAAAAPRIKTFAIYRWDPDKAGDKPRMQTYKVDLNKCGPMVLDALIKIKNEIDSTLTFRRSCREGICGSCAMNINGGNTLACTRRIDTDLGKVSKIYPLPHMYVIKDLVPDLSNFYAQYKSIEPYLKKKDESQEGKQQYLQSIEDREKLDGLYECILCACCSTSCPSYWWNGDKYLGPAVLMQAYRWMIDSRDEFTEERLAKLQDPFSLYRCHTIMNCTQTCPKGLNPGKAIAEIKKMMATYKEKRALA
T1 sequence (Q641Z9 30-169 limits assumed): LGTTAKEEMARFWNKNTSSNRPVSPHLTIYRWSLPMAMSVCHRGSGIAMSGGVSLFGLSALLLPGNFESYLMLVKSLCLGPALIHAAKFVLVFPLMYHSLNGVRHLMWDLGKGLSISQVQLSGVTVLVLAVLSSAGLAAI
T1 sequence (Q6PCT8 57-159): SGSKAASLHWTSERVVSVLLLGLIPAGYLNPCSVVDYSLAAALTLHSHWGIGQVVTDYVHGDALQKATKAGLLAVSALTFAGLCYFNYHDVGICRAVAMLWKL

Take `CCOC(=O)CCCn1cc(C(=O)c2cccc(NCc3c(-c4c(Cl)cccc4Cl)noc3C)c2)c2ccccc21` [Compound 2]: in data set [1] (setting [5]), the “Inhibitory activity on oxygen consumption via respiratory chain complex II (in words)” value was “completely lacked inhibitory activity”. `Cc1onc(-c2c(Cl)cccc2Cl)c1/C=N/c1cccc(C(=O)c2cn(CCCC(=O)O)c3ccccc23)c1` [Compound 3] gave a pIC50 in data set [1] of 4.28. Consider `CCOC(=O)CCCn1cc(C(=O)c2cccc(/N=C/c3c(-c4c(Cl)cccc4Cl)noc3C)c2)c2ccccc21` [Compound 4], for which, in data set [1] (setting [5]), the “Inhibitory activity on oxygen consumption via respiratory chain complex II (in words)” value is on record as “completely lacked inhibitory activity”. As for `Cc1onc(-c2c(Cl)cccc2Cl)c1CNc1cccc(C(=O)c2cn(CCCC(=O)O)c3ccccc23)c1` [DS16570511], the pIC50 in data set [2] is 5.04; in data set [3] it was 4.97; in data set [1] it was 5.02; in data set [4], 4.39; on FoF1-ATPase/ANT, 4.01. For the same molecule, in data set [1] (200 µM, rat liver mitochondria, succinate, SF6847), the “Inhibition of oxygen consumption at a single concentration (in words)” value was “inhibited oxygen consumption to the same extent as antimycin”. For the same molecule, the “Effect on mitochondrial oxygen consumption (uncoupling test, in words)” value (shortened to “Effect … (uncoupling test, in words)”) in the data set with rat liver mitochondria is “reduced the rate of oxygen consumption”. Regarding `N.N.N.N.N.N.N.N.O=CO.O=CO.[O-2].[Ru+3].[Ru+4]` [Ruthenium 360], the pIC50 with Ca2+ uptake was 9.74.

Take `CC(C)(C)c1cc(C=C(C#N)C#N)cc(C(C)(C)C)c1O` [SF6847]: the “Effect … (uncoupling test, in words)” value in the data set on rat liver mitochondria is “markedly increased oxygen consumption”. In the case of `N.N.N.N.N.N.N.N.[Cl][Ru+3].[N-]=[Ru][Cl]` [ruthenium 265], the “Adverse effect after intraperitoneal administration” value in the data set on mice is reported as “caused seizure-like movements”. On to alamethicin, for which the “Effect … (uncoupling test, in words)” value with rat liver mitochondria was “markedly increased oxygen consumption”.
